{"source": "patent US6608111B1", "about": "“Method for treating or preventing prostatic conditions” (Southern Illinois University Office of Research, …, priority 1998, dated 2003)", "key": {"[1]": {"test_system": "male and female Sprague-Dawley rats", "experiment": "Experiment 1: chronic treatment of male and female rats, 4 weeks", "type": "in vivo, rat", "details": "mean ± SEM; for Food intake: 2.5 ug/g of body weight daily injection; for Food intake / Food intake (g): n = 5", "method": "Twenty-five male and 25 female Sprague-Dawley rats, 9-10 weeks of age, were randomly assigned to groups of five animals, respectively, as a control group (no treatment) (C), for treatment with vehicle only (V), estradiol (E), (±)-Z-BDDA, or (+)-Z-BDDA. Each animal in group V received a daily 0.1 cc injection of a 10% ethanol-90% olive oil solution; the other treatments received their respective compound as a daily 0.1 cc injection, e.g., 2.5 μg of compound/g of body weight, in a 10% ethanol-90% olive oil solution. A temperature of 21° C. and an artificial 12-h light-dark cycle was maintained in the animal room. All animals were maintained on standard chow in powdered form for four weeks, then sacrificed after an overnight fast under i.p. pentobarbital anesthesia (50 mg/kg). Animal weight and food intake were measured weekly during the study, and the subsequent food-efficiency ratio [FER(g of weight change/g of food intake)] was determined. During sacrifice, blood was collected (via cardiac puncture) for cholesterol measurements. Immediately following sacrifice the fat pads and reproductive organs were removed and weighed.\n(§1) Experiments 1 and 2 employed a randomized design. All data were analyzed by one-way analysis of variance (ANOVA,)and post-hoc comparisons were made with Tukey pairwise comparisons test. Significance was confirmed at p≦0.05 (SYSTAT 7.0, SPSS INC., 1997), and all values are reported as means±standard error of the mean."}, "[2]": {"test_system": "male and female Wistar rats", "experiment": "Experiment 2: chronic treatment of male and female rats, 5-6 weeks", "type": "in vivo, rat", "details": "for Food intake: n = 5; for testosterone: compared to the vehicle", "method": "Twenty-five male and 25 female Wistar rats, 7-8 weeks of age, were randomly assigned to groups of five animals, respectively, for treatment with vehicle only (V), estradiol (E), (±)-Z-BDDA, (+)-Z-BDDA, or (−)-Z-BDDA. Each animal in group V received a daily 0.1 cc injection of a 10% ethanol-90% olive oil solution; the other treatments received their respective compound as a daily 0.1 cc injection, e.g., 2.5 μg of compound/g of body weight, in a 10% ethanol-90% olive oil solution. A temperature of 21° C. and an artificial 12-h light-dark cycle were maintained in the animal room. All animals were maintained on standard chow in powdered form, the males for five weeks and the females for six weeks, then sacrificed after an overnight fast under i.p. pentobarbital anesthesia (50 mg/kg). Animal weight and food intake were measured weekly during the study and subsequent FER values were determined. During sacrifice, blood was collected (via cardiac puncture) for glucose, luteinizing hormone, prolactin and testosterone measurements. The amounts of luteinizing hormone, prolactin and testosterone were measured to help elucidate the target tissue of the respective compounds in male and female rats. Immediately following sacrifice the fat pads and reproductive organs were removed and weighed.\nas §1"}, "[3]": {"test_system": "dialyzed LDL", "experiment": "Oxidized LDL lag time assay (antioxidant capacity)", "parameters": "species or system human", "details": "3 μM Cu2SO4, drugs at 10^−4, 10^−5, 10^−6, and 10^−7 M", "method": "Experiments were carried out on dialyzed LDL collected from four fasted persons. The LDL was used within 10 days of dialysis. The oxidizing agent was 3 μM […]; phosphate buffered saline was used to control pH, and all drugs were dissolved in ethanol; final concentrations of each drug in the assays were 10^−4, 10^−5, 10^−6, and 10^−7 M. The combined results are shown in FIG. 6."}, "[4]": {"test_system": "male Sprague-Dawley rats", "experiment": "Example 4: effects on prostate and testis of male rats, 6 weeks", "type": "in vivo, rat", "details": "for testis histology: Leydig cells / testis histology: spermatogenesis: FIGS. 5a-f; for Prostate Weight as % Body Weight / Seminal Vesicle Weight as % Body Weight / Testis Weight as % Body Weight / Body Weight (g): 0.1 ug/g of body weight once a day, mean ± SEM; for Body Weight (g): n = 10", "method": "Sixty male Sprague-Dawley rats, 7-8 weeks of age, were randomly assigned to groups of ten animals. Each group was randomly assigned to one of six treatments: Vehicle control (C), Estradiol-17β(E), (−)-Z-BDDA, (+)-Z-BDDA, (−)-HAA, and (+)-HAA. The compounds were all administered at a dose of 0.1 μg/g of body weight in 0.1 cc once a day for 6 weeks. The estrogenic compounds were dissolved in 10% ethanol and 90% olive oil vehicle. A temperature of 21° C. and an artificial 12 h light-dark cycle were maintained in the animal room. All animals were maintained on standard chow in powdered form for six weeks, and then sacrificed after an overnight fast under i.p. pentobarbitol anesthesia (50 mg/kg). Animal weight was measured weekly during the study. During sacrifice, blood was collected via cardiac puncture. Immediately following sacrifice, the fat pads, livers, pituitaries, testes, seminal vesicles, and prostate were removed and weighed, and snap frozen in liquid nitrogen. Prostates and one testis from 2-3 animals in each treatment group were fixed in 10% formalin for histological examination. These tissues were fixed overnight, blocked in paraffin, sectioned at 4 μm, stained with Hematoxylin and Eodsin, cover slipped, and examined microscopically. Quantitative results were subjected to an analysis of variance and means separated by a Tukey's Test (SYSTAT, Chicago, Ill.)."}, "[5]": {"details": "female rats (uterus), 2.5 ug/g of body weight daily"}, "[6]": {"details": "female rats, 2.5 ug/g of body weight daily, g of weight change/g of food intake"}, "[7]": {"details": "female rats, 2.5 ug/g of body weight daily"}, "[8]": {"details": "male rats (testis), 2.5 ug/g of body weight daily"}, "[9]": {"details": "male rats, 2.5 ug/g of body weight daily"}, "[10]": {"details": "female rats (uterus), 2.5 ug/g of body weight daily, six weeks, mean ± SEM"}, "[11]": {"details": "female rats, 2.5 ug/g of body weight daily, six weeks, mean ± SEM"}, "[12]": {"details": "male rats (testis), 2.5 ug/g of body weight daily, five weeks, mean ± SEM"}, "[13]": {"details": "male rats, 2.5 ug/g of body weight daily, five weeks, mean ± SEM"}}, "note": "“Also recorded” adds a separate entry of the source.", "data": [{"molecule": "C[C@]12CCC3c4ccc(O)cc4CCC3[C@@H]1CCC2O", "note": "(single isomer, unassigned; (+)) [estradiol, (+)-17β-estradiol, reference compound]", "values": [{"measurement": "Uterus/testis weight", "setting": "[1]; [5]", "result": "1.58 ± 0.15", "unit": "g"}, {"measurement": "Food intake", "setting": "[1]; female rats", "result": "371.6 ± 17.8", "unit": "g"}, {"measurement": "FER (food efficiency ratio)", "setting": "[1]; [6]", "result": "0.035 ± 0.011"}, {"measurement": "Cholesterol (mg/dl)", "setting": "[1]; [7]", "result": "44.9 ± 15.8^1 mg/dl"}, {"measurement": "Visceral fat (g)", "setting": "[1]; [7]", "result": "0.8 ± 0.1^1 g"}, {"measurement": "Uterus/testis weight (g)", "setting": "[1]; [8]", "result": "0.94 ± 0.13^1,2 g"}, {"measurement": "Cholesterol (mg/dl)", "setting": "[1]; [9]", "result": "51.5 ± 9.5^1,2 mg/dl"}, {"measurement": "FER (food efficiency ratio)", "setting": "[1]; [9]", "result": "−0.057 ± 0.012^1,2"}, {"measurement": "Prostate weight (g)", "setting": "[1]; [9]", "result": "0.09 ± 0.01^1,2 g"}, {"measurement": "Visceral fat (g)", "setting": "[1]; [9]", "result": "4.2 ± 0.4^2 g"}, {"measurement": "Food intake (g)", "setting": "[1]; [9]", "result": "298.2 ± 18.8^1 g"}, {"measurement": "Uterus/testis weight (g)", "setting": "[2]; [10]", "result": "4.83 ± 1.30^1 g"}, {"measurement": "Blood glucose", "setting": "[2]; [11]", "result": "100.80 ± 10.22", "unit": "mg/dL"}, {"measurement": "FER (food efficiency ratio)", "setting": "[2]; [11]", "result": "0.039 ± 0.004"}, {"measurement": "Food intake", "setting": "[2]; [11]", "result": "699.6 ± 33.7", "unit": "g"}, {"measurement": "Uterus/testis weight (g)", "setting": "[2]; [12]", "result": "0.74 ± 0.04^1 g"}, {"measurement": "testosterone", "setting": "[2]; male rats, 2.5 μg/g daily", "result": "significant (p<0.05) testosterone suppression"}, {"measurement": "Blood glucose", "setting": "[2]; [13]", "result": "108.00 ± 10.90", "unit": "mg/dL"}, {"measurement": "FER (food efficiency ratio)", "setting": "[2]; [13]", "result": "0.00 ± 0.01^1"}, {"measurement": "Prostate weight", "setting": "[2]; [13]", "result": "0.06 ± 0.02", "unit": "g"}, {"measurement": "Food intake", "setting": "[2]; [13]", "result": "590.4 ± 47.7", "unit": "g"}, {"measurement": "body weight (percent weight change)", "setting": "[2]; male rats, both experiments (FIGS. 2 and 3), 2.5 μg/g daily", "result": "dramatic reduction in body weight"}, {"measurement": "antioxidant activity (shift in lag time of LDL oxidation)", "setting": "[3]", "result": "very little antioxidant activity"}, {"measurement": "testis histology: Leydig cells", "setting": "[4]; 0.1 μg/g daily", "result": "small"}, {"measurement": "testis histology: spermatogenesis", "setting": "[4]; 0.1 μg/g daily", "result": "halted at round (Golgi phase) spermatids"}, {"measurement": "Prostate Weight as % Body Weight", "setting": "[4]", "result": "0.05 ± 0.00^1 % Body Weight"}, {"measurement": "Seminal Vesicle Weight as % Body Weight", "setting": "[4]", "result": "0.02 ± 0.00^1 % Body Weight"}, {"measurement": "Testis Weight as % Body Weight", "setting": "[4]", "result": "0.49 ± 0.13^1,4 % Body Weight"}, {"measurement": "Body Weight (g)", "setting": "[4]", "result": "207.2 ± 4.6^1 g"}]}, {"molecule": "CC[C@H]1c2ccc3cc(O)ccc3c2CC[C@@]1(C)C(=O)O", "note": "[(+)-Z-BDDA, (+)-Z-bisdehydrodoisynolic acid]", "values": [{"measurement": "Uterus/testis weight (g)", "setting": "[1]; [5]", "result": "2.57 ± 0.79^1,2 g"}, {"measurement": "Food intake", "setting": "[1]; female rats", "result": "315.2 ± 18.4", "unit": "g"}, {"measurement": "FER (food efficiency ratio)", "setting": "[1]; [6]", "result": "0.045 ± 0.017^4"}, {"measurement": "Cholesterol (mg/dl)", "setting": "[1]; [7]", "result": "35.1 ± 8.6^1 mg/dl"}, {"measurement": "Visceral fat (g)", "setting": "[1]; [7]", "result": "2.1 ± 0.3^1,3 g"}, {"measurement": "Uterus/testis weight (g)", "setting": "[1]; [8]", "result": "0.84 ± 0.06^1,2 g"}, {"measurement": "Cholesterol (mg/dl)", "setting": "[1]; [9]", "result": "24.6 ± 2.2^1,2,3 mg/dl"}, {"measurement": "FER (food efficiency ratio)", "setting": "[1]; [9]", "result": "−0.174 ± 0.027^1,2,3,4"}, {"measurement": "Prostate weight (g)", "setting": "[1]; [9]", "result": "0.13 ± 0.04^1,2,3 g"}, {"measurement": "Visceral fat (g)", "setting": "[1]; [9]", "result": "5.1 ± 0.2^2 g"}, {"measurement": "Food intake (g)", "setting": "[1]; [9]", "result": "326.0 ± 9.5^1 g"}, {"measurement": "Uterus/testis weight (g)", "setting": "[2]; [10]", "result": "4.02 ± 0.91^1 g"}, {"measurement": "Blood glucose", "setting": "[2]; [11]", "result": "89.60 ± 6.15", "unit": "mg/dL"}, {"measurement": "FER (food efficiency ratio)", "setting": "[2]; [11]", "result": "0.026 ± 0.008^1"}, {"measurement": "Food intake", "setting": "[2]; [11]", "result": "693.6 ± 72.3", "unit": "g"}, {"measurement": "Uterus/testis weight (g)", "setting": "[2]; [12]", "result": "0.61 ± 0.02^1 g"}, {"measurement": "testosterone", "setting": "[2]; male rats, 2.5 μg/g daily", "result": "significant (p<0.05) testosterone suppression"}, {"measurement": "Blood glucose (mg/dl)", "setting": "[2]; [13]", "result": "94.00 ± 10.18^1 mg/dl"}, {"measurement": "FER (food efficiency ratio)", "setting": "[2]; [13]", "result": "−0.02 ± 0.01^1"}, {"measurement": "Prostate weight (g)", "setting": "[2]; [13]", "result": "0.02 ± 0.00^1 g"}, {"measurement": "Food intake", "setting": "[2]; [13]", "result": "676.0 ± 33.2", "unit": "g"}, {"measurement": "antioxidant activity (shift in lag time of LDL oxidation)", "setting": "[3]", "result": "significant antioxidant activity"}, {"measurement": "prostate histology (alveoli)", "setting": "[4]; 0.1 μg/g daily, FIGS. 4a-f", "result": "normal alveoli; also recorded: tubules and alveoli being slightly smaller"}, {"measurement": "testis histology: Leydig cells", "setting": "[4]; 0.1 μg/g daily", "result": "normal"}, {"measurement": "testis histology: spermatogenesis", "setting": "[4]; 0.1 μg/g daily", "result": "normal"}, {"measurement": "gross testes weights unadjusted for bodyweight", "setting": "[4]; 0.1 μg/g daily, data not shown", "result": "lighter (P<0.05) than those in control rats"}, {"measurement": "Prostate Weight as % Body Weight", "setting": "[4]", "result": "0.05 ± 0.01^1 % Body Weight"}, {"measurement": "Seminal Vesicle Weight as % Body Weight", "setting": "[4]", "result": "0.23 ± 0.12^2 % Body Weight"}, {"measurement": "Testis Weight as % Body Weight", "setting": "[4]", "result": "0.98 ± 0.15", "unit": "% Body Weight"}, {"measurement": "Body Weight (g)", "setting": "[4]", "result": "234.8 ± 10.1^1,2 g"}]}]}
